Assay results published in patent US11678665B2, “Pyrazine-4-carbamate or -urea derivatives as herbicides” (Syngenta Participations AG, priority 2017, dated 2023).

What was measured:
Format in all cases: in vivo
[1] = system: Echinochloa crus-galli (ECHCG); experiment: Pre-emergence herbicidal activity, ECHCG; conditions: 1000 g/ha, sprayed pre-emergence, evaluated after 13 days, damage score 0-5
Procedure: (§1) Seeds of a variety of test species were sown in standard soil in pots: Triticum aestivium (TRZAW), Avena fatua (AVEFA), Alopecurus myosuroides (ALOMY), Echinochloa crus-galli (ECHCG), Lolium perenne (LOLPE), and Setaria faberi (SETFA). After cultivation for one day (pre-emergence) under controlled conditions in a glasshouse (at 24/16° C., day/night; 14 hours light; 65% humidity), the plants were sprayed with an aqueous spray solution derived from the formulation of the technical active ingredient in acetone/water (50:50) solution containing 0.5% Tween 20 (polyoxyethelyene sorbitan monolaurate, CAS RN 9005-64-5). The test plants were then grown in a glasshouse under controlled conditions (at 24/16° C., day/night; 14 hours light; 65% humidity) and watered twice daily. After 13 days, the test was evaluated (5=total damage to plant; 0=no damage to plant).

[2] = system: Lolium perenne (LOLPE); experiment: Pre-emergence herbicidal activity, LOLPE; set-up: key: 5=total damage to plant; 0=no damage to plant; conditions: 1000 g/ha, sprayed pre-emergence, evaluated after 13 days, damage score 0-5
Procedure: as §1

[3] = system: Setaria faberi (SETFA); experiment: Pre-emergence herbicidal activity, SETFA; conditions: 1000 g/ha, sprayed pre-emergence, evaluated after 13 days, damage score 0-5
Procedure: as §1

[4] = system: Avena fatua (AVEFA); experiment: Pre-emergence herbicidal activity, AVEFA; set-up: key: 5=total damage to plant; 0=no damage to plant; conditions: 1000 g/ha, sprayed pre-emergence, evaluated after 13 days, damage score 0-5
Procedure: as §1

[5] = system: Alopecurus myosuroides (ALOMY); experiment: Pre-emergence herbicidal activity, ALOMY; set-up: key: 5=total damage to plant; 0=no damage to plant; conditions: 1000 g/ha, sprayed pre-emergence, evaluated after 13 days, damage score 0-5
Procedure: as §1

[6] = system: Triticum aestivium (TRZAW); experiment: Pre-emergence herbicidal activity, TRZAW; set-up: key: 5=total damage to plant; 0=no damage to plant; conditions: 1000 g/ha, sprayed pre-emergence, evaluated after 13 days, damage score 0-5
Procedure: as §1

[7] = system: Echinochloa crus-galli (ECHCG); experiment: Post-emergence herbicidal activity, ECHCG; set-up: key: 5=total damage to plant; 0=no damage to plant; conditions: 1000 g/ha, sprayed post-emergence (8 days cultivation), evaluated after 13 days, damage score 0-5
Procedure: (§2) Seeds of a variety of test species were sown in standard soil in pots: Triticum aestivium (TRZAW), Avena fatua (AVEFA), Alopecurus myosuroides (ALOMY), Echinochloa crus-galli (ECHCG), Lolium perenne (LOLPE), and Setaria faberi (SETFA). After 8 days cultivation (post-emergence) under controlled conditions in a glasshouse (at 24/16° C., day/night; 14 hours light; 65% humidity), the plants were sprayed with an aqueous spray solution derived from the formulation of the technical active ingredient in acetone/water (50:50) solution containing 0.5% Tween 20 (polyoxyethelyene sorbitan monolaurate, CAS RN 9005-64-5). The test plants were then grown in a glasshouse under controlled conditions (at 24/16° C., day/night; 14 hours light; 65% humidity) and watered twice daily. After 13 days, the test was evaluated (5=total damage to plant; 0=no damage to plant).

[8] = system: Lolium perenne (LOLPE); experiment: Post-emergence herbicidal activity, LOLPE; set-up: key: 5=total damage to plant; 0=no damage to plant; conditions: 1000 g/ha, sprayed post-emergence (8 days cultivation), evaluated after 13 days, damage score 0-5
Procedure: as §2

[9] = system: Setaria faberi (SETFA); experiment: Post-emergence herbicidal activity, SETFA; set-up: key: 5=total damage to plant; 0=no damage to plant; conditions: 1000 g/ha, sprayed post-emergence (8 days cultivation), evaluated after 13 days, damage score 0-5
Procedure: as §2

[10] = system: Avena fatua (AVEFA); experiment: Post-emergence herbicidal activity, AVEFA; conditions: 1000 g/ha, sprayed post-emergence (8 days cultivation), evaluated after 13 days, damage score 0-5
Procedure: as §2

[11] = system: Alopecurus myosuroides (ALOMY); experiment: Post-emergence herbicidal activity, ALOMY; set-up: key: 5=total damage to plant; 0=no damage to plant; conditions: 1000 g/ha, sprayed post-emergence (8 days cultivation), evaluated after 13 days, damage score 0-5
Procedure: as §2

[12] = system: Triticum aestivium (TRZAW); experiment: Post-emergence herbicidal activity, TRZAW; set-up: key: 5=total damage to plant; 0=no damage to plant; conditions: 1000 g/ha, sprayed post-emergence (8 days cultivation), evaluated after 13 days, damage score 0-5
Procedure: as §2

Row | Compound | Control of weed species after pre-emergence application: ECHCG [1] | Control of weed species after pre-emergence application: LOLPE [2] | Control of weed species after pre-emergence application: SETFA [3] | Control of weed species after pre-emergence application: AVEFA [4] | Control of weed species after pre-emergence application: ALOMY [5] | Control of weed species after pre-emergence application: TRAZW [6] | Control of weed species after post-emergence application: ECHCG [7] | Control of weed species after post-emergence application: LOLPE [8] | Control of weed species after post-emergence application: SETFA [9] | Control of weed species after post-emergence application: AVEFA [10] | Control of weed species after post-emergence application: ALOMY [11] | Control of weed species after post-emergence application: TRAZW [12]
1 | COCCC(=O)Nc1ncc(-c2cncc(F)c2)nc1C [Compound I10] | 2 | 0 | 2 | 0 | 0 | 0 | 3 | 0 | 2 | 1 | 0 | 0
2 | CCC(=O)Nc1ncc(-c2cncc(F)c2)nc1C [Compound I2] | 2 | 0 | 3 | 0 | 0 | 0 | 4 | 0 | 4 | 1 | 0 | 0
3 | CC(=O)Nc1ncc(-c2cncc(F)c2)nc1C(F)(F)F [Compound I3, 2-(acetylamino)-3-trifluoromethyl-5-(5-fluoropyrid-3-yl)pyrazine] | 3 | 0 | 4 | 1 | 0 | 0 | 3 | 1 | 4 | 3 | 1 | 1
4 | CC(=O)N(C(C)=O)c1ncc(-c2cncc(F)c2)nc1C [Compound I5, 2-(diacetylamino)-3-methyl-5-(5-fluoropyrid-3-yl)pyrazine] | 2 | 1 | 3 | 0 | 0 | 0 | 2 | 1 | – | 1 | 0 | 1
5 | COCCC(=O)N(C(=O)CCOC)c1ncc(-c2cncc(F)c2)nc1C(F)(F)F [Compound I11] | 3 | 0 | 4 | 0 | 0 | 1 | 5 | 1 | 5 | 4 | 0 | 1
6 | CC(=O)N(C(C)=O)c1ncc(-c2cncnc2)nc1C(F)(F)F [Compound I8] | 2 | 1 | 4 | 0 | 0 | 0 | 4 | 1 | 5 | 2 | 1 | 1
7 | CC(=O)N(C(C)=O)c1ncc(-c2cncc(F)c2)nc1C(F)(F)F [Compound I4, 2-(diacetylamino)-3-trifluoromethyl-5-(5-fluoropyrid-3-yl)pyrazine] | 3 | 0 | 4 | 1 | 0 | 3 | 3 | 1 | 4 | 2 | 0 | 0
8 | CCC(=O)N(C(=O)CC)c1ncc(-c2cncc(F)c2)nc1C(F)(F)F [Compound I1] | 2 | 1 | 3 | 1 | 0 | 0 | 4 | 1 | 4 | 2 | 0 | 0
9 | CC(=O)Nc1ncc(-c2cncc(F)c2)nc1C [Compound I9] | 1 | 0 | 4 | 0 | 0 | 0 | 2 | 0 | 3 | 2 | 0 | 0
